Results: patent US12178830B2, “Compositions and methods for adoptive cell therapy for cancer” (MEMORIAL SLOAN KETTERING CANCER CENTER, priority 2017, dated 2024)

How the values were obtained:
HEK293T (kidney) = experiment: CellTitre Glo in vitro cytotoxicity, HEK293T; format: cell-based, human
Jurkat (T cell) = experiment: CellTitre Glo in vitro cytotoxicity, Jurkat; format: cell-based, human
primary T-cells = experiment: CellTitre Glo in vitro cytotoxicity, primary T cells; format: cell-based, human
[1] = test system: SKOV-3 human ovarian cancer cell line; experiment: Cell viability, Skov-3; format: cell-based
Nalm6 = experiment: Cell viability, Nalm6; format: cell-based
Raji = experiment: Cell viability, Raji; format: cell-based, human
[2] = test system: myeloid leukemia cell line SET2; experiment: CellTitre Glo in vitro cytotoxicity, SET2; format: cell-based
[3] = test system: panel of cancer cell lines and primary cell lines; experiment: In vitro cytotoxicity of drug/prodrug pairs against a panel of cell lines; format: cell-based
Jurkat T cells = experiment: Jurkat viability with prodrug plus supernatant from CPG2-secreting HEK293T cells; format: cell-based, human; settings: increasing prodrug, 48 hours, supernatant from CPG2-secreting HEK293T cells
Experimental: (§1) The in vitro cytotoxicity of AMS (structure 1c) and its prodrug variant (structure 1a) was tested against a variety of cell lines using a CellTitre Glo® assay (Promega, Madison, WI). […] Moreover, co-treatment with the prodrug and supernatant from CPG2-transfected HEK293T cells (see Example 3) led to cytotoxicity approaching that of the free drug (50 nM), consistent with CPG2-mediated cleavage of the prodrug to release the active parent drug. […] In contrast, AMS prodrug 1a was not activated by HEK293T cells expressing CPG intracellularly, which likely attributed to poor cell-penetrance of the prodrug due to the free bis-anionic gluatamate moiety.
Jurkat T cells were exposed to increasing concentrations of AMS (circle) or Pro-AMS with media alone (triangle) or supernatant from CPG2-secreting HEK293T cells (square). Cell viability was measured at 48 hours by CellTitre-Glo® luminescence assay.
Jurkat T cells were exposed to increasing concentrations of ZD2767P with media alone (triangle) or supernatant from CPG2-secreting HEK293T cells (square). Cell viability was measured at 48 hours by CellTitre-Glo® luminescence assay.

recombinant CPG2 = target: T1, recombinant CPG2 (Pseudomonas sp., UniProt P06621, N222Q/N264Q/N272Q); experiment: Glutamate release assay (Amplex Red) with recombinant CPG2; format: biochemical; settings: high concentrations (~10 μM), 37° C.
T1 construct: 6xHis (pET151 Directional TOPO leader) (N); made in house; host or cells: E. coli BL21 star
Experimental: FIG. 4 provides exemplary data showing activation of P-AMS (see FIG. 2) by recombinant CPG2 expressed and purified from E. coli. (A) Human Jurkat T cells were incubated with or without P-AMS in the presence of increasing concentration of purified CPG2. Cell viability was measured at 48 hours by CellTitre-Glo luminescence. (B) Recombinant CPG2 was exposed to various concentrations of glutamated AMS prodrug. Following incubation at 37° C. (0.5, 1, 2, and 4 hr.), the reaction was combined with Amplex® Red (converts free glutamate to a fluorescent species) and fluorescent emission was analyzed using a fluorescence multiwell plate scanner.
The CPG2-pET151 vector was transformed into BL21 star E. coli cells and induced with IPTG. Bacteria were homogenized in a French Press and purified by affinity chromatography over Ni++ beads using standard protocols. Imidazole was exchanged via PBS dialysis and protein was purified via desalting spin columns. The expressed and purified CPG2 was assayed to confirm that the active enzyme was a potent converter of glutamated prodrugs. […] Pro-AMS was activated by recombinant CPG2 in vitro. Human Jurkat T cells were incubated with or without P-AMS in the presence of increasing concentration of purified CPG2. Cell viability of the Jurkat cells was measured at 48 hours by CellTitre-Glo® luminescence. […]

[4] = test system: HEK293T cells expressing CPG2; experiment: HEK293T cells expressing CPG2 variants exposed to P-AMS; format: cell-based, human
Experimental: as §1
Expression of CPG2 without a signal peptide (CPG2nosigp) was employed as a control. HEK293t cells stably transfected with CPG2 variants were exposed to P-AMS ([…]) for 48 hours and analyzed by bright field microscopy (FIG. 9A). Cells were exposed to varying concentrations of P-AMS and cell viability was analyzed at 48 hr post treatment (FIG. 9B).

SET2 cells = experiment: SET2 viability with prodrug plus recombinant enzyme or enzyme-containing supernatant; format: cell-based; settings: supernatant from CPG2-secreting HEK293t cells; control media did not
Experimental: Recombinant CPG2 protein was initially synthesized, purified (FIGS. 18A and 18B), and incubated with increasing concentrations of prodrug in a glutamate release assay (FIG. 17C). Mass spectrometry was used to determine that the glutamate moiety was released from all of the glutamate prodrugs. The in vitro cytotoxicity of the prodrugs (FIG. 17B) were tested against the myeloid leukemia cell line SET2 using a CellTitre Glo® assay (Promega, Madison, WI).
SET2 cells were exposed to increasing concentrations of AMS (square) or glut-AMS with media alone (− control, triangle) or supernatant from CPG2-secreting HEK293t cells (circle). Cell viability was measured by CellTitre-Glo® luminescence assay.
Thus, antigen-dependent expansion of SEAKER T cells results in increased output of enzyme into the extracellular milieu.
To determine to respective enzyme output of the Beta-lactamase constructs relative to the previous CPG2 constructs, a quantitative sandwich ELISA was used to determine the concentration (ng/mL) of purified recombinant CPG2, and a quantitative nitrocefin assay was used to determine the concentration (ng/mL) of purified recombinant Beta-lactamase (FIG. 25A). Cell viability was measured by CellTitre-Glo® luminescence in the presence of prodrug (glut-AMS or ceph-AMS) and varying concentrations of purified recombinant CPG2 or Beta-lactamase (FIG. 25B).

[5] = target: T2, endogenous glutamate carboxypeptidase expressed in human prostate cells (Homo sapiens, UniProt Q04609); experiment: Cell Titer-Glo viability of LNCap cells with AMS-glut prodrug (specificity for CPG2); format: cell-based
T2 construct: the endogenous glutamate carboxypeptidase expressed in human prostate cells; endogenous in cells; host or cells: LNCap cells
Excerpt: This prodrug/drug combination was chosen for further development of the SEAKER systems.

[6] = test system: human epithelial CACO-2 cells; experiment: Cell permeability in CACO-2 cells; format: in vitro ADME
[7] = mouse, in vivo

For `NS(=O)(=O)OC[C@H]1O[C@@H](n2cnc3c(NC(=O)N[C@@H](CCC(=O)O)C(=O)O)ncnc32)[C@H](O)[C@@H]1O` [P-AMS, ((9-((2R,3R,4S,5R)-3,4-dihydroxy-5-((sulfamoyloxy)methyl)tetrahydrofuran-2-yl)-9H-purin-6-yl)carbamoyl)-L-glutamic acid], the “Selective Index” value (HEK293T (kidney); HEK293t, prodrug vs AMS) was >7.5, the IC50 (HEK293T (kidney); Homo sapiens, HEK-293T, read-out: IC50 (cell selectivity data)) was > 5000 nM and the IC50 (Jurkat (T cell); Homo sapiens, Jurkat, read-out: IC50 (cell selectivity data)) was > 1250 nM. The “Selective Index” value (Jurkat (T cell); Jurkat (T cell), prodrug vs AMS) was >162.3, the IC50 (primary T-cells; Homo sapiens, T-cell, read-out: IC50 (cell selectivity data)) was > 3000 nM and the “Selective Index” value (primary T-cells; Human T cell, prodrug vs AMS) was >13.2. The IC50 ([1]; Homo sapiens, SK-OV-3, read-out: IC50 (cell selectivity data)) was > 5000 nM, the “Selective Index” value ([1]; Skov-3, prodrug vs AMS) was >14.3 and the IC50 (Nalm6; Homo sapiens, NALM-6, read-out: IC50 (cell selectivity data)) was > 3000 nM. For the same compound, the “Selective Index” value (Nalm6; Nalm6, prodrug vs AMS) was >81.3, the IC50 (Raji; Homo sapiens, read-out: IC50 (cell selectivity data)) was > 3000 nM and the “Selective Index” value (Raji; prodrug vs AMS) was >170.5. The IC50 ([2]; Homo sapiens, SET-2, read-out: IC50 (cell selectivity data)) was > 3000 nM, the “Selective Index” value ([2]; Set2, prodrug vs AMS) was >87.2 and the selective indices ([3]; all cell types tested) was > 100. For the same compound, the IC50 ([3]; prodrug alone, cell lines tested) was > 1000 nM, the SI selectivity index ([3]; prodrug vs free drug, up to) was > 56 and the “cell viability with prodrug and CPG2 supernatant” value (Jurkat T cells) was “significant decrease in cell viability”. For the same compound, the “time in which the majority of the prodrug is converted” value (recombinant CPG2) was ≤ 1 h, the “activation by cells expressing CPG intracellularly” value ([4]; HEK293T cells expressing CPG intracellularly) was “not activated” and the “cell death of HEK293T cells stably expressing secreted or transmembrane CPG2” value ([4]; P-AMS, 48 hr, CPG2nosigp control did not) was “significant cell death”. The “SET2 cell viability with prodrug and CPG2 supernatant” value (SET2 cells) was “significant decrease in cell viability”, the “stability to endogenous glutamate carboxypeptidase” value [5] was “remained stable” and the cell permeability [6] was “no cell permeability”. The toxicity [7] was “non-toxic”.
